Reference: patent publication US5512479A, “Method of degrading volatile organochlorides and remediation thereof” (priority 1993, dated 1996)

Assays:
[1] = system: toluene monooxygenase (TMO); test: TCE induced TMO activity with different growth substrates (14C-toluene assay); type: cell-based, Pseudomonas mendocina KR-1; details: 40 μM TCE; for induced TMO activity increase (FIG. 4): growth substrate run, 6 hour period; for factor of TMO activity increase after addition of the substrate (FIG. 4): 3 g/L glutamate, 2 g/L glucose, or 20 mM lactate added after 2.75 hours
Protocol: (§1) Radioactivity in the bottles was enumerated by placing the bottles in a liquid scintillation counter. Results were recorded as disintegrations per minute (DPM). […] Non-volatile products were not evaporated from the silica gel during the drying phase, and were enumerated by scintillation counting. Thus, the greater the DPMs, the greater the TMO activity.
(§2) The effect of three growth substrates on TCE induced TMO activity was also established through a series of four runs. Cells were grown overnight as previously described for non-inducing growth: 30° C., 100 RPM, 50 mL cells in 125 mL flask in BSM with either 3 g/L sodium glutamate, 20 mM lactate, or 2 g/L glucose. The cultures were then washed and suspended to an O.D.550 =1.0 in BSM plus 0.3 g/L glutamate, 2.0 mM lactate, and 0.2 g/L glucose, respectively. TCE was then added to a final concentration of 40 μM, vials were sealed, and shaken at 30° C. […] At timed intervals, 10 μL of the air above the reaction mixture was removed from the vials by using a gas-tight syringe, and injected onto a gas chromatograph (Varian 3400; Star Data System) equipped with a 30M VOCOL column (Supelco Inc.: c0.53 mm ID, […] film, helium carrier at 7 mL/min, 100° C. isothermal, injector at 225° C.) and an electron capture detector (GC-ECD; 300° C.) to quantify the TCE remaining in the vial. Relative TCE concentration was enumerated as area counts, greater area counts representing greater amounts of TCE remaining in the vials. Five cell suspensions as described above were supplemented with 1 μM, 10 μM, 20 μM, 40 μM and 80 μM of TCE. A control run not shown in FIG. 3, and performed in the same manner as the other five runs, contained only DMF. Cell suspensions were incubated at 30° C. with shaking, and TMO activity, as described above with respect to Example 1, was determined at timed intervals.

[2] = system: Pseudomonas mendocina KR-1; test: TCE degradation (TCE bottle assay, gas chromatography); type: cell-based
Protocol: as §2
To determine the ability of alkanes to assist in the induction of TMO activity in P. mendocina KR-1 and to subsequently degrade TCE, the organism was grown in basal salts medium with hexane, octane and pentane as sole carbon and energy sources. TMO activity was determined by using the ^14 C-toluene assay and TCE degradation was measured by using a TCE bottle assay, both as described previously.
Finally, alkane grown cells were analyzed for their ability to degrade TCE by using the TCE bottle assay and cells suspended in BSM to OD550 =2.0. […] Loss of TCE in the control (glucose) sample is thought to be due to induction of TMO by TCE.

[3] = system: toluene monooxygenase (TMO); test: TMO activity induced by TCE (14C-toluene assay); type: cell-based, Pseudomonas mendocina KR-1
Protocol: Cells were first grown overnight under non-inducing conditions. Specifically, cells were grown by suspending a small amount of cells from agar plate, or broth media, in a 125 mL flask containing 50 mL of basal salts medium (BSM) containing 3 g/L sodium glutamate with or without 0.1 g/L casamino acids (Difco). Cells were placed on a rotary shaker and shaken at 100 rpm and 30° C. for 16-24 hr. The cells were then centrifuged and washed with BSM. They were subsequently suspended in BSM and glutamate (3 g/L) to an optical density at 550 nm (OD550) of 1.0. Ten mL of cell suspension was added to a 50 mL serum vial, and 10 μL TCE (40 mM) dissolved in dimethylformamide (DMF) was added to a final concentration of 40 μM.
Comparison non-induced samples were prepared by adding only dimethylformamide (10 μL) to replicate 10 mL cell suspensions. The comparison samples contained no TCE. All sample vials were sealed with teflon-coated crimp seals and the cell suspensions were shaken at 25° C.
as §1
Another set of experiments containing five runs was performed to determine the preferred concentration of TCE used to induce the TMO genes in P. mendocina KR-1. TCE degradation was measured by suspending cells in BSM to an OD550 of 1.0. 10 mL of cells were added to 50 mL serum vials and 10 μL of TCE in dimethylformamide was added (final TCE concentration: 1-80 μM). Vials were sealed with teflon-lined crimp seals and shaken at 30° C. At timed intervals, 250 μl of sample was removed from each sample by using a syringe. The sample was mixed with 250 μl BSM to generate a final volume of 0.5 mL and OD550 of 0.5. ^14 C-Toluene assays were then performed on the samples as described previously.

[4] = system: Pseudomonas cepacia; details: cited from earlier work
[5] = system: Pseudomonas putida; details: only upon induction by toluene or phenol; cited from earlier work
[6] = system: toluene monooxygenase (TMO); type: cell-based, Pseudomonas mendocina KR-1; details: for TMO Activity (DPM): cells grown 48 hr on growth substrate (Table 1); for % Activity: relative to toluene-grown cells (Table 1)
Protocol: as §1
To determine the ability of alkanes to assist in the induction of TMO activity in P. mendocina KR-1 and to subsequently degrade TCE, the organism was grown in basal salts medium with hexane, octane and pentane as sole carbon and energy sources.
Cells were grown for 48 hr, washed with BSM, then suspended to an OD550 of 1.0 in BSM. Cells were incubated for 1 hr to allow removal of most residual alkane. They were then subjected to TMO and TCE assays.

[7] = system: toluene monooxygenase (TMO); type: cell-based, Pseudomonas mendocina KR-1; details: for induction of TMO, in words: substrate added to glutamate-grown cells
Protocol: as §1
A TMO assay was performed on the cells. Then 5 ml of the culture was added to each of four 50 mL serum vials. […] The vials were incubated at 30° C. and sampled, by using a glass syringe, at 1.5 hr and 2.5 hr after substrate addition.

glucose
induced TMO activity increase (FIG. 4) [1]: under 5,000 DPM | factor of TMO activity increase after addition of the substrate (FIG. 4) [1]: at least 5 | effect of growth substrate on TCE degradation (FIG. 5) ([2]; 40 μM TCE, 6 hours): greatest effect on TCE degradation

ClC=C(Cl)Cl [TCE, trichloroethylene]
TMO activity (FIG. 3) ([3]; 1 μM TCE, 4 hour test period): very little TMO activity was measured | TMO activity (FIG. 3) ([3]; 10 μM or more of TCE, after the first half hour): increased dramatically after the first half hour | induced TMO activity over 30 minutes (FIG. 1) ([3]; 40 μM TCE, 25° C., 30 minute period): increased dramatically over the 30 minute time period | TMO activity (FIG. 2) ([3]; 40 μM TCE, first 75 minutes): over 3,000 DPM | further increase of TMO activity (FIG. 2) ([3]; 40 μM TCE, remaining 4 1/2 to 5 hours of six hour experiment): almost two fold | rate of increase of TMO activity (FIG. 1) ([3]; 40 μM TCE, ten minute time interval): substantially two fold rate | induction of TMO activity (FIG. 3) ([3]; 10 and 20 μM TCE): best results with respect to induction of TMO activity | induction of TMO activity (FIG. 3) ([3]; concentrations higher than 10 and 20 μM TCE): quite effective | TMO induction by TCE in glutamate- and glucose-grown cells [1]: rapid induction | percentage of TCE remaining (FIG. 6) ([2]; 6 hours, glucose (2 g/L) added after about 3 hours, 40 µM): about 10% | loss of TCE in the control (glucose) sample (FIG. 7) ([2]; OD550 = 2.0, glucose-grown control): Loss of TCE | TCE degradation (FIG. 6) ([2]; absent any additional inducing substrates): TCE degradation occurs simply by contacting Pseudomonas mendocina cells with TCE | TCE concentrations in response to TMO induction (FIG. 5) ([2]; sealed vials, 6 hours): decreased in response to TMO induction | TCE degradation by Pseudomonas cepacia G4 ([4]; grown without an inducer): unable to degrade TCE | TCE degradation by Pseudomonas cepacia 5223-PR1 ([4]; recombinant strain): did display the ability to degrade TCE | TCE degradation by Pseudomonas putida PpF1 and B5 [5]: some ability to degrade TCE

CCCCCC [Hexanes]
TMO Activity (DPM) [6]: 4889 DPM | % Activity [6]: 29%

Cc1ccccc1 [Toluene, reference compound]
% Activity [6]: 100% | induction of TMO, in words [7]: only limited activity was observed

CCCCC [Pentane]
TMO Activity (DPM) [6]: 2079 DPM | % Activity [6]: 12% | TMO Activity (DPM), T = 1.5 hr. ([7]; 1.5 hr after substrate addition, 30° C. (Table 2)): 2480 DPM | TMO Activity (DPM), T = 2.5 hr. ([7]; 2.5 hr after substrate addition, 30° C. (Table 2)): 1293 DPM | TMO Activity (DPM), T = 0 ([7]; T = 0, before substrate addition (Table 2)): 126 DPM | TMO Activity (DPM), T = 1.5 hr., killed cells ([7]; killed (100 μl 1M HCl) + pentane, 1.5 hr (Table 2)): 128 DPM | TMO Activity (DPM), T = 2.5 hr., killed cells ([7]; killed (100 μl 1M HCl) + pentane, 2.5 hr (Table 2)): 121 DPM | TMO Activity (DPM), T = 0, killed cells ([7]; killed (100 μl 1M HCl) + pentane, T = 0 (Table 2)): 126 DPM | induction of TMO, in words [7]: induction of TMO by pentane

CC(O)C(=O)O (stereo not shown) [lactate]
TMO activity up to 2.75 hours (FIG. 4) ([1]; before addition of further substrate): little or no TMO activity | factor of TMO activity increase after addition of the substrate (FIG. 4) [1]: at least 5

CCCCCCCC [Octane]
TMO Activity (DPM) [6]: 3915 DPM | % Activity [6]: 23%

N[C@@H](CCC(=O)[O-])C(=O)[O-].[Na+].[Na+] [Gultamate, sodium glutamate, reference compound]
induced TMO activity increase (FIG. 4) [1]: up to 3,500 DPM | factor of TMO activity increase after addition of the substrate (FIG. 4) [1]: at least 5 | TMO Activity (DPM) [6]: 123 DPM | % Activity [6]: 0.7%
